Entries after “also recorded” stand apart in the source; their conditions may differ.
Assays:
A375-WT [1] = assay: Pan-Cancer PepTile/PiTile fitness screen (lentiviral 40-mer peptide library, NGS abundance); type: cell-based, human; parameters: key: enrichment of each peptide's NGS abundance, early day vs Day 14; settings: for A375-WT Fitness Score: Pan-Cancer library, peptide enrichment day 14 vs day 0
From the text: FIGS. 13A-13D show Pan-Cancer PiTile Workflow. (A) The Pan-Cancer peptide library is composed of 1081 proteins tiled into 40-mer peptides at every 6 amino acids of the parental protein. The DNA-encoded library is cloned into lentiviral vectors and packaged into lentivirus. (B) A375 cell line was transduced with the Pan-Cancer PiTile library. Genomic DNA was then harvested at Day2 and Day 14 post-transduction and cell populations abundance expressing the different peptides were quantified using Next-Generation Sequencing (NGS). Peptide fitness score was then calculated by the abundance of each peptide at Day2 versus Day 14. Then the fitness signal is mapped over the original amino acid positions of the derived protein. (C) Coverage of the plasmid Pan-Cancer library and peptide-amplicons from Day2 and Day 14 replicated was determined by NGS. (D) Dot plot of the experimental result obtain from screening the Pan-Cancer library in A375 cell line.
(§1) A peptide tilling screen was performed in A375 similarly to a screen done in MDA-MB-231 (FIG. 1) but with a different lentiviral library. The library (Pan-Cancer library) is composed of 1020 genes tiled every 6 amino acids into 40-mer amino acid long peptides. The gene selection was based on their implication in oncogenesis either being as oncogenes or tumor suppressors. The list was built using recent literature that identified new cancer drivers as well as databases such as Uniprot keywords (KW-0656: Proto-oncogene, KW-0043: Tumor suppressor), and Gene Ontology terms (GO1900117: Apoptosis, GO1901979: Cell cycle checkpoint) (FIG. 2). Aside from Human genes, a list of viral genes was also included (KW-1121: Modulation of host cell cycle by virus) that play roles in high jacking cell cycle progression and thus in oncogenesis (FIG. 2).
(§2) The model of study is melanoma, and this disease is stratified into 4 molecular subtypes, BRAF mutants, NRAS mutants, KIT amplification, NF1 mutations (FIG. 3A). The most prominent mutations found in patient affected with metastatic melanomas are BRAF^V600E and NRAS^Q61K (FIG. 3B). RAS play a key role in oncogenesis and resistance to treatments. Indeed, RAS activating mutations is found in ~20% of all human cancers and secondary NRAS mutation leads to acquired resistance to BRAF targeted therapy such as vemurafenib. Thus, the screen was performed in an A375 cell line model which derived from human BRAF^V600E melanoma as well as an engineered A375 transduced with HA-NRAS^Q61K (FIG. 4A, B). Both cell lines grow at a similar rate but the A375-NRAS^Q61K display more than 10-fold resistance to vemurafenib treatment compared to parental A375 (FIG. 4C, D).
(§3) These cells were transduced with the Pan-Cancer library at a low multiplicity of infection (MOI=0.1-0.3). Then, genomic DNA was extracted at day 0 and day 14 post-transduction to quantify the abundance of peptide for each temporal conditions using Next-generation sequencing. Each experimental replicates were deep sequenced with at least 150 million reads and show a coverage between 82-90% of the initial Pan-Cancer Peptide library (FIG. 5). Then, for each individual peptides a cellular fitness score was calculated based on their enrichment between day 0 and day 14. 8090 peptides negatively affecting growth of A375-WT were identified and 8153 peptides for the A375-NRAS^Q61K cell line (FIG. 6). […] Those common hits are found to be tiles from ~100 genes of the Pan-Cancer gene list and show a substantial biological function clustering.
We built a DNA-encoded peptide library composed of all known Human oncogenes and Tumor Suppressors that we fragmented in 40 amino acid long peptides, the Pan-Cancer library. Using lentiviral expression system, we transduced the Pan-Cancer library in A375 cell line. After 14 days of growth, the frequency of each peptide is measured by NGS and this reveal which peptides affect cell fitness. […]

A375-NRAS^Q61K [2] = assay: Pan-Cancer PepTile fitness screen (lentiviral 40-mer peptide library, NGS abundance); type: cell-based, human; settings: peptide enrichment day 14 vs day 0
Experimental: as §1, §2, §3

A375-WT [3] = assay: Validation assay: cell growth (CCK8, 48 hours after plating) of cells transduced with single peptide tiles; type: cell-based, human; settings: peptide overexpression
Experimental: (§4) FIGS. 9A-9C. (A) Fitness screen validation assay workflow. (B) Validation assay results (C) Fitness screen results.
(§5) FIGS. 14A-14E show PiTiles derived from DNA-binding domains of MYC and SOX17 inhibit transcriptional program. (A) Experimental workflow of A375 cell line individually transduced with lentivirus expressing GFP_147, MYC_384 or SOX17_96. 5 days post-transductions, RNA was harvested for RNA sequencing. Additionally, cells were plated for a 48-hour growth assay. (B) Cell growth of A375 cell line expressing GFP_147 (control), MYC_384 and SOX17_96. […] Red bar=FDR<0.05. We observe a negative peak in bHLHzip domain of MYC as well as HMG box domain of SOX17. Both domains mediated binding to DNA. (D) Principal Component Analysis of RNA-sequencing for both biological replicates of GFP_147, MYC_384 and SOX17_96 expressing cell lines. (E) A375 RNAseq data was analyzed using Gene Set Enrichment Analysis. For MYC_384 versus GFP_147 over ODONNEL_TARGET_OF_MYC_and_TFRC. For SOX17_96 versus GFP_147 over PRANMOOJAGO_SOX4.
(§6) All those selected hits mapped to a known protein domain with known roles in protein-protein interaction or protein-DNA interaction. […] When the fold change of every tile on the protein amino acid positions was mapped, functional regions of the protein affecting cell growth were identified. For example, on RAF1, peaks corresponding to the Ras-binding domain (RBD) were identified, and the kinase domain (FIG. 8A). […] In addition, a region of MYC that affect cell growth was identified and mapped on the DNA binding domain bHLH (FIG. 8). […] To validate the results from the screen, A375-WT and -NRAS^Q61K were transduced with GFP_147, or RAF1_78, MYC_384, or KIT_499, or SOS_120 tiles and cell growth measured using CCK8 assay
(§7) 48 hours after plating (FIG. 9A). […] The CR2 domain of BRAF contain a 14-3-3 binding site and play a role in BRAF-MEK autoinhibitory complex which regulates MAPK pathway activation. One of the goals of this contextual PepTile screen was to identify peptides that would impair growth of NRAS cell line but not the parental, to address overall NRAS-driven drug resistance. For instance, more than 6000 peptide hits were detected that are exclusive to A375-NRAS^Q61K (FIG. 6). For example, ARHGAP20 and ARHGAP26 show a very different PepTile profiles between A375-NRAS^Q61K and A375-WT (FIG. 11) and seem to have more of an effect in the A375-NRAS^Q61K condition. Altogether, the Pan-Cancer PepTile screen show the potential of finding new potential peptides to target NRAS melanoma, as well as mapping protein domains involved in cellular growth in a given context.

A375-NRAS^Q61K [4] = assay: as above; type: cell-based, human; settings: peptide overexpression
From the text: as §4, §6, §7

MDA-MB-231 = settings: cited from earlier work
[5] = tested on: MYC transcriptional program (ODONNEL_TARGET_OF_MYC_and_TFRC); assay: RNA-sequencing GSEA of A375 expressing MYC_384 versus GFP_147; type: cell-based, human; settings: 5 days post-transduction
Experimental: as §5

Substance | A375-WT Fitness Score (A375-WT [1]) | A375-NRAS Fitness Score (A375-NRAS^Q61K [2]) | further results
ELF4_39: 40-mer peptide tile of ELF4, AA start position 228, ETS domain | −2.44 | −1.35 | 
EP300_99: 40-mer peptide tile of EP300, AA start position 588, KIX domain | −3.20 | 0.86 | 
FER_38: 40-mer peptide tile of FER, AA start position 222, F-BAR domain (LKGIFDEYSQITSLVTEEIVNVHKEIQMSVEQIDPSTEYN; UniProt P16591 222-261, looked up, fragment) | −2.21 | −1.48 | 
FLCN_43: 40-mer peptide tile of FLCN, AA start position 252, Longin domain (ACLHTSFAWLLKACGSRLTEKLLEGAPTEDTLVQMEKLAD; UniProt Q8NFG4 252-291, looked up, fragment) | −1.76 | −1.99 | 
FZD3_55: 40-mer peptide tile of FZD3, AA start position 324, Transmembrane domain (IEKKALLFHASAWGIPGTLTIILLAMNKIEGDNISGVCFV; UniProt Q9NPG1 324-363, looked up, fragment) | −3.21 | −3.27 | 
KIT_84: 40-mer peptide tile of KIT, AA start position 498, Transmembrane domain (GKTSAYFNFAFKGNNKEQIHPHTLFTPLLIGFVIVAGMMC; UniProt P10721 498-537, looked up, fragment) | −3.23 | −0.77 | cell growth compared to GFP_147 (A375-WT [3]): decreases cell growth; cell growth compared to GFP_147 (A375-NRAS^Q61K [4]): much less affected
MAD1L1_78: 40-mer peptide tile of MAD1L1, AA start position 462, Coiled Coil domain (ELGGQKQRADMLEMELKMLKSQSSSAEQSFLFSREEADTL; UniProt Q9Y6D9 462-501, looked up, fragment) | −4.42 | −3.52 | 
MTOR_42: 40-mer peptide tile of MTOR, AA start position 246, HEAT domain | −3.36 | 1.01 | Fitness score (A375-WT [1]; PanCancer Peptide Table (Table 3), lentivirally expressed 40-mer peptide tile, negative = depleted): −3.37
MYC_65: 40-mer peptide tile of MYC, AA start position 384, bHLH domain (ELKRSFFALRDQIPELENNEKAPKVVILKKATAYILSVQA; UniProt P01106 384-423, looked up, fragment) | −2.50 | −0.47 | hit in previous screen (MDA-MB-231): identified and validated; GSEA of MYC transcriptional program [5]: downregulation of their respective transcriptional programs; cell growth compared to GFP_147 (A375-WT [3]; listed as MYC_384): cell growth defect; also recorded: decreases cell growth; cell growth compared to GFP_147 (A375-NRAS^Q61K [4]): not affected
PIK3CA_38: 40-mer peptide tile of PIK3CA, AA start position 222, RBD (AEAIRKKTRSMLLSSEQLKLCVLEYQGKYILKVCGCDEYF; UniProt P42336 222-261, looked up, fragment) | −2.72 | −0.85 | 
RAF1_14: 40-mer peptide tile of RAF1, AA start position 78, RBD (LHDCLMKALKVRGLQPECCAVFRLLHEHKGKKARLDWNTD; UniProt P04049 78-117, looked up, fragment) | −1.79 | −0.50 | hit in previous screen (MDA-MB-231): identified and validated; cell growth compared to GFP_147 (A375-WT [3]): decreases cell growth; cell growth compared to GFP_147 (A375-NRAS^Q61K [4]): much less affected
SMARCA4_257: 40-mer peptide tile of SMARCA4, AA start position 1536, Bromodomain (AQTFNLEGSLIYEDSIVLQSVFTSVRQKIEKEDDSEGEES; UniProt P51532 1536-1575, looked up, fragment) | −4.98 | −0.54 | 
SMC3_124: 40-mer peptide tile of SMC3, AA start position 738, Coiled Coil domain (EMKMLKEKRQQSEKTFMPKQRSLQSLEASLHAMESTRESL; UniProt Q9UQE7 738-777, looked up, fragment) | −3.08 | 0.13 | Fitness score (A375-WT [1]; PanCancer Peptide Table, 40-mer peptide tile expressed from lentiviral library): −3.09
SOS1_21: 40-mer peptide tile of SOS1, AA start position 120, HF domain | −2.56 | −0.81 | cell growth compared to GFP_147 (A375-WT [3]): decreases cell growth; cell growth compared to GFP_147 (A375-NRAS^Q61K [4]): not affected
SUZ12_23: 40-mer peptide tile of SUZ12, AA start position 132, WDB1 domain (FKVDDMLSKVEKMKGEQESHSLSAHLQLTFTGFFHKNDKP; UniProt Q15022 132-171, looked up, fragment) | −2.12 | −0.27 | 

Reference: US20260285924A1, “PEPTIDE THERAPEUTICS” (priority 2023, published 2026)
